Patent US10759735B2, “Bridged bicyclic compounds and their derivatives as neuroprotective agents and methods of use thereof” (Florida Atlantic University Board of Trustees, priority 2018, dated 2020)
Entries after “also recorded” stand apart in the source; their conditions may differ.

Key:
Assay type in all cases: in vivo, Drosophila melanogaster
[1] = tested on: Drosophila larval neuromuscular junction synaptic transmission; assay: neuromuscular junction (NMJ) postsynaptic transmission assay: time to synaptic failure under acute oxidative stress (2.25 mM H2O2); details: for EC50: Drosophila melanogaster, read-out: EC50 (half-maximal effective concentration) in protecting neurotransmission from H2O2 exposure, 2.25 mM H2O2 in HL3 saline, w1118 third instar larvae, from % maximal response of time to synaptic failure
Text: Small molecule-mediated neuroprotection is an area of research that has important implications for several maladies such as migraine, Alzheimer's disease, and stroke. One promising method to measure the neuroprotective effects of various medicinal compounds against oxidative stress in D. melanogaster has been developed (Caplan et al. Journal of Neurophysiology, 2013, 109, 3, 649-658). In this phenotypic model, fly larvae have their synaptic transmission measured via electrical probes in the post-synaptic neuromuscular junction (NMJ). The time until synaptic failure is first measured to obtain a control. An oxidizing solution (2.25 mM of hydrogen peroxide) is then introduced to the tissue and the time to synaptic failure is again measured. Hydrogen peroxide greatly reduces the time to synaptic failure relative to the control by damaging neurons through oxidative stress. Once the time to synaptic failure has been established with hydrogen peroxide alone, then different compounds can be introduced at varying concentrations along with the hydrogen peroxide solution, and their effects on the time to synaptic failure are measured and compared to the two controls.
A series of compounds generated using the methods described herein were subjected to a neuromuscular junction (NMJ) postsynaptic transmission assay. Resveratrol was included as a neuroprotectant control. When a wash of hydrogen peroxide (2.25 mM) was introduced, the time to synaptic failure was shortened from approximately 150 min to approximately 40 min (FIG. 2). Introducing resveratrol at 25 nM restored the time to synaptic failure to approximately 150 min upon addition of hydrogen peroxide (2.25 mM).
To quantify tolerance of neurotransmission to acute oxidative stress, electrophysiological recordings from Drosophila larval preparations were conducted in a hemolymph-like 3 (HL3) saline containing 2.25 mM hydrogen peroxide (H2O2).
Wandering third instar larvae (≈110 hours old) from the fruit fly, Drosophila melanogaster, were utilized for all electrophysiological experiments described throughout this study. Larvae were reared at 25° C. on 12 h:12 h light-dark (LD) cycles in an incubator. Only w^1118 larvae were utilized in this study.
(§1) All electrophysiological experiments were performed as previously described with the exception of the resistance of the intracellular electrodes (60-90 MΩ) (Caplan et al. J. Neurophys. 109, 649-658). Excitatory junction potentials (EJPs) were elicited via repetitive stimulation (0.3 ms pulses delivered suprathreshold at a frequency of 1 Hz) and measured until synaptic failure occurred, which was characterized by an EJP amplitude of <1 mV being recorded. Electrophysiological recordings from larval preparations were conducted in hemolymph-like 3 (HL3) saline containing 2.25 mM H2O2. […] HL3 saline containing 1.5 mM Ca^2+ and 20 mM Mg^2+ was used as the recording saline throughout this study. HL3 has been utilized by other research groups to record EJPs.^20 Intracellular recordings of resting membrane potential were taken from Drosophila larval muscle 6.
All test compounds and H2O2 were applied to the Drosophila larval NMJ preparation as previously described by Caplan et al. (supra). However, the compounds utilized in the Caplan et al. work were dissolved in dimethyl sulfoxide (DMSO), whereas the compounds utilized in the present study are water-soluble at the concentrations used and thus were dissolved in ddH2O.
The statistics utilized in the vertical bar charts and line graphs were performed as previously described with the exception of the error bars being presented as mean±SEM instead of mean±SD. The EC50, or half maximal effective concentration, of each test compound was determined by plotting the logio(compound dose) against the corresponding average percentage of the maximal effectiveness, as previously described (Caplan et al. J. Neurophys. 109, 649-658).

[2] = tested on: excitatory junction potential (EJP) at the Drosophila NMJ; assay: control recordings of excitatory junction potential (EJP) shape and amplitude; details: 1 nM, in the presence and absence of 2.25 mM H2O2, ten minutes after bath switch
Description: In all panels, the curved black line represents the average EJP in hemolymph-like saline (HL3) one minute before the recording bath was replaced with HL3 containing the drug alone or the drug and H2O2. The curved gray line represents the average EJP from the same larvae ten minutes after the bath was switched from HL3 saline to HL3 containing either the drug alone or the drug and H2O2.

[3] = tested on: Drosophila larval muscle 6 resting membrane potential; assay: intracellular recording of resting membrane potential (RMP) during acute oxidative stress; details: 1 nM with 2.25 mM H2O2 versus H2O2 alone
Description: FIGS. 8A and 8B are a pair of graphs showing that during acute oxidative stress, Drosophila larval muscle resting membrane potential (RMP) and EJP amplitude decline. […] 8B) EJP amplitude was recorded in the same larval preparations (n=5 per group). […] Data is presented as mean±SEM.
To ensure that the results obtained using compound 1 and resveratrol were not due to changes in the EJP, additional control experiments were performed, as previously described (Caplan et al. J. Neurophys. 109, 649-658). […] It was also observed that resting membrane potential (RMP) and EJP amplitude decline in larvae treated with H2O2 alone and H2O2 with 1 nM compound 1 (see FIGS. 8A. 8B).
as §1, with “HL3 has been utilized by other research groups to record EJPs.^20 Intracellular recordings of resting membrane potential were taken from Drosophila larval muscle 6.” left out

In the case of `COc1cc(OC)cc(C2CC3C(OC(C)=O)C(C)=C(C)C2(C(=O)O)C3OC(C)=O)c1` (racemic) [compound 1, 7-(3,5-dimethoxyphenyl)-4,8-diacetoxy-2,3-dimethylbicyclo[3.2.1]oct-2-ene-1-carboxylic acid], the “time until synaptic failure restored” value ([1]; 0.5 nM, in the presence of hydrogen peroxide) is reported as 80%, the “normal synaptic function maintained” value ([1]; 25 nM, H2O2 2.25 mM, wild-type fruit fly larvae) is reported as 100% and the “time to synaptic failure compared to control and resveratrol-treated preparations” value ([1]; 0.5-5 nM dosage range, 2.25 mM H2O2, P<0.001) is reported as “significantly increased time to synaptic failure”. The EC50 [1] was ~0.21 nM, the “neuroprotection in screening of initial compounds” value ([1]; H2O2 2.25 mM, wild-type fruit fly larvae) was “potent neuroprotectants” and the “neuroprotective effect compared to resveratrol across dosages” value ([1]; almost all dosages tested (0.5 nM to 25 nM)) was “stronger neuroprotective effects”. The “protection of synaptic transmission from acute oxidative stress” value ([1]; at a subnanomolar level) was “protect synaptic transmission from acute oxidative stress”, the “dose dependence of neuroprotective effect” value ([1]; dose-response, 2.25 mM H2O2) was “dose-dependent manner” and the “neuroprotective effect at lowest dose” value ([1]; doses as low as 500 pM, H2O2 exposure) was “strong neuroprotective effects”. For the same compound, the ion channel stabilization ([1]; general statement ('appear to have'), no separate test described) was “ion channel stabilization effects”, the toxicity ([1]; general statement, no separate test described) was “non-toxic” and the “time until synaptic failure compared to control larvae treated with 2.25 mM H2O2 only” value ([1]; low doses (0.5 nM and 1 nM)) was “significantly increased the amount of time until synaptic failure”. For the same compound, the “neuroprotective effect compared to resveratrol” value ([1]; similar dosage of resveratrol, P<0.001) was “stronger neuroprotective effects”, the “acute effect on the shape or amplitude of the EJP” value [2] was “do not have a significant acute effect; also recorded: do not acutely affect” and the “decline of resting membrane potential (RMP)” value [3] was “significantly slowed the decline of RMP”.

`COc1cc(OC)cc(C2CC3C(O)C(C)=C(C)C2(C(=O)O)C3O)c1` (racemic) [compound 2, 7-(3,5-dimethoxyphenyl)-4,8-dihydroxy-2,3-dimethylbicyclo[3.2.1]oct-2-ene-1-carboxylic acid] was tested, and the EC50 [1] was 2.99 nM, the “time to synaptic failure during H2O2 exposure compared to control preparations” value ([1]; higher doses, P<0.001) was “significantly increased time to synaptic failure” and the “time to failure during H2O2 exposure” value ([1]; low doses (0.1 nM and 0.5 nM)) was “did not prolong time to failure”. For the same compound, the “time to synaptic failure compared to control” value ([1]; only at the 5.0 nM dosage, 2.25 mM H2O2, P<0.001) was “similarly increased time to synaptic failure” and the “EC50 relative to compound 1” value ([1]; ratio of EC50 values) was “over ten-fold higher”.

For `Oc1ccc(C=Cc2cc(O)cc(O)c2)cc1` [resveratrol, reference compound], the “time to synaptic failure” value ([1]; 25 nM with hydrogen peroxide 2.25 mM (H2O2 alone approx. 40 min, no H2O2 approx. 150 min)) was “approximately 150 min”, the “neuroprotectant activity from the dose curve” value ([1]; at the chosen dosages, unusual dose curve, EC50 not reliably determinable) was “does not act as a neuroprotectant” and the “acute effect on the shape or amplitude of the EJP” value [2] was “do not have a significant acute effect; also recorded: do not acutely affect”.
